# Measured values reported in PMC6168621 (Frontiers in Pharmacology, 2018).
# Marks after values point to notes of the source that are not given here.
# Assays:
# [1] = biological target: T1, hCB1Rs (Homo sapiens, UniProt P21554); experiment: biochemical; conditions: read-out: EMAX, [^35S]GTPγS binding (maximal G-protein activation)
# T1 construct: host or cells: CHO-K1 (CHO-hCB1)
# [2] = biological target: T1, hCB1Rs; experiment: cell-based; type: cell-based
# [3] = biological target: T1, hCB1Rs; type: cell-based
# T1 sequence (P21554 whole entry): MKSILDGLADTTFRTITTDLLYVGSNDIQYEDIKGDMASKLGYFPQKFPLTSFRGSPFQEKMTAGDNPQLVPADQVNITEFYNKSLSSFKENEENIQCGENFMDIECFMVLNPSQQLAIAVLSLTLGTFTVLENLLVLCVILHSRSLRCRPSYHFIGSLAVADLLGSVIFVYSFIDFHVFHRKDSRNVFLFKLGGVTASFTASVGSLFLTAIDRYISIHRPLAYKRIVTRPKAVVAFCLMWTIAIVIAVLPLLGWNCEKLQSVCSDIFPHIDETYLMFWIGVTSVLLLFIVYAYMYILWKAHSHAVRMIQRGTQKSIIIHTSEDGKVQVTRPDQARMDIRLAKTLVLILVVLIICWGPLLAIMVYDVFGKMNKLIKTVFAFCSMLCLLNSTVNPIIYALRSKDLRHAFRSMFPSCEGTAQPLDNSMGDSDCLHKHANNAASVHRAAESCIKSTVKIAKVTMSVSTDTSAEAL
smiles,measurement,setting,value
"CCCCCCC(C)(C)c1ccc([C@@H]2C[C@H](O)CC[C@H]2CCCO)c(O)c1 [CP-55,940, reference compound]",Emax,[1],64 ± 3.8%
same,"IMAX, cAMP accumulation (maximal adenylyl cyclase inhibition)",[2],86.7 ± 6.4^a %
same,"Efficacy (Imax) of CP-55,940 to inhibit adenylyl cyclase",[3],86.7 ± 6.4%
